According to patent publication US7192906B2, “Substituted pyrazole derivatives, production process thereof, and herbicide compositions containing the derivatives” (SDS Biotech K.K., priority 2001, dated 2007):

Key:
Type in all cases: in vivo
[1] = test system: Chenopodium album; assay: Test Example 2 upland soil treatment; conditions: Table 5, upland soil treatment, index 0-5
Outline: (§1)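 Seeds are sown into upland soil and covered by roughly 1 cm of soil, then the compound, formulated as a wettable powder and diluted with water, is applied uniformly to the soil surface the following day at 1 kg active ingredient per hectare. Herbicidal effect or phytotoxicity is graded 0 to 5 after 21 days.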

[2] = test system: Stellaria media; assay: Test Example 2 upland soil treatment; conditions: Table 5, upland soil treatment, index 0-5
Outline: as §1

[3] = test system: Setaria viridis; assay: Test Example 2 upland soil treatment; conditions: Table 5, upland soil treatment, index 0-5
Outline: as §1

[4] = test system: Digitaria adscendens; assay: Test Example 2 upland soil treatment; conditions: Table 5, upland soil treatment, index 0-5
Outline: as §1

[5] = test system: Monochoria vaginalis; assay: Test Example 3 paddy field treatment; conditions: active ingredient 1 kg per hectare, index 0-5
Outline: (§2)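 Scoring used a 0–5 scale of herbicidal effect or phytotoxicity, from <10% to ≥90%, taken 21 days after treatment. Treatment was 1 kg a.i./ha as diluted wettable powder dripped onto 4 cm-deep flooded pots sown with the weeds, 10 days after transplanting two-leaf Koshihikari rice.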

[6] = test system: Echinochloa crusgalli; assay: Test Example 3 paddy field treatment; conditions: active ingredient 1 kg per hectare, index 0-5
Outline: as §2

[7] = test system: Scirpus juncoides; assay: Test Example 3 paddy field treatment; conditions: active ingredient 1 kg per hectare, index 0-5
Outline: as §2

[8] = test system: Ammannia multiflora; assay: Test Example 3 paddy field treatment; conditions: active ingredient 1 kg per hectare, index 0-5
Outline: as §2

[9] = test system: soybean (Glycine max); assay: Test Example 2 upland soil treatment, crop phytotoxicity; conditions: Table 5, upland soil treatment, index 0-5
Outline: as §1

[10] = test system: wheat (Triticum aestivum); assay: as above; conditions: Table 5, upland soil treatment, index 0-5
Outline: as §1

[11] = test system: Rice (Oryza sativa); assay: Test Example 3 paddy field treatment, crop phytotoxicity; conditions: active ingredient 1 kg per hectare, index 0-5; for Herbicidal activity (phytotoxicity) OS: Table 6, paddy field treatment, transplanted rice, 21st day after dropping
Outline: as §2

[12] = test system: Chenopodium album; assay: Test Example 1 upland field foliage treatment; conditions: Table 4, upland field foliage treatment, index 0-5
Outline: (§3)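 Post-emergence foliar spray, 1 kg a.i./ha, wettable powder diluted in water, applied 14 d after sowing in upland soil. Rating 21 d post-application, 0–5 scale: 5 ≥90%, 4 70–<90%, 3 50–<70%, 2 30–<50%, 1 10–<30%, 0 <10% effect or injury.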

[13] = test system: Stellaria media; assay: Test Example 1 upland field foliage treatment; conditions: Table 4, upland field foliage treatment, index 0-5
Outline: as §3

[14] = test system: Setaria viridis; assay: Test Example 1 upland field foliage treatment; conditions: Table 4, upland field foliage treatment, index 0-5
Outline: as §3

[15] = test system: Digitaria adscendens; assay: Test Example 1 upland field foliage treatment; conditions: Table 4, upland field foliage treatment, index 0-5
Outline: as §3

[16] = test system: soybean (Glycine max); assay: Test Example 1 upland field foliage treatment, crop phytotoxicity; conditions: Table 4, upland field foliage treatment, index 0-5
Outline: as §3

[17] = test system: wheat (Triticum aestivum); assay: as above; conditions: Table 4, upland field foliage treatment, index 0-5
Outline: as §3

[18] = paddy field treatment, wettable powder, 21st day after the dropping
[19] = Table 6, paddy field treatment, 21st day after dropping

| Compound | Herbicidal activity CA: Chenopodium album [1] | Herbicidal activity SM: Stellaria media [2] | Herbicidal activity SV: Setaria viridis [3] | Herbicidal activity DA: Digitaria adscendens [4] | Herbicidal activity (phytotoxicity) GM: Soybean (Glycine max) [9] | Herbicidal activity (phytotoxicity) TA: Wheat (Triticum aestivum) [10] | Herbicidal activity CA: Chenopodium album [12] | Herbicidal activity SM: Stellaria media [13] | Herbicidal activity SV: Setaria viridis [14] | Herbicidal activity DA: Digitaria adscendens [15] | Herbicidal activity (phytotoxicity) GM: Soybean (Glycine max) [16] | Herbicidal activity (phytotoxicity) TA: Wheat (Triticum aestivum) [17] | Herbicidal activity MV [5, 19] | Herbicidal activity EC [6, 19] | Herbicidal activity SJ [7, 19] | Herbicidal activity AM [8, 19] | Herbicidal activity (phytotoxicity) OS [11] | also measured |
| --- | --- | --- | --- | --- | --- | --- | --- | --- | --- | --- | --- | --- | --- | --- | --- | --- | --- | --- |
| CON=C(Cn1cc(C)c(-c2ccc(Cl)cc2)n1)C(N)=O [Compound 17] | 4 (herbicidal effect of not less than 70% and less than 90%, or phytotoxicity of 70% or more and less than 90%) | 4 (herbicidal effect of not less than 70% and less than 90%, or phytotoxicity of 70% or more and less than 90%) | 4 (herbicidal effect of not less than 70% and less than 90%, or phytotoxicity of 70% or more and less than 90%) | 4 (herbicidal effect of not less than 70% and less than 90%, or phytotoxicity of 70% or more and less than 90%) | 0 (herbicidal effect of not less than 0% and less than 10%, or phytotoxicity of 0% or more and less than 10%) | 0 (herbicidal effect of not less than 0% and less than 10%, or phytotoxicity of 0% or more and less than 10%) | 5 (herbicidal effect of not less than 90%, or phytotoxicity of 90% or more) | 5 (herbicidal effect of not less than 90%, or phytotoxicity of 90% or more) | 5 (herbicidal effect of not less than 90%, or phytotoxicity of 90% or more) | 5 (herbicidal effect of not less than 90%, or phytotoxicity of 90% or more) | 0 (herbicidal effect of not less than 0% and less than 10%, or phytotoxicity of 0% or more and less than 10%) | 0 (herbicidal effect of not less than 0% and less than 10%, or phytotoxicity of 0% or more and less than 10%) |  |  |  |  |  | Herbicidal activity MV [5, 18]: 5 (herbicidal effect of not less than 90%, or phytotoxicity of 90% or more); Herbicidal activity EC [6, 18]: 4 (herbicidal effect of not less than 70% and less than 90%, or phytotoxicity of 70% or more and less than 90%); Herbicidal activity SJ [7, 18]: 4 (herbicidal effect of not less than 70% and less than 90%, or phytotoxicity of 70% or more and less than 90%); Herbicidal activity AM [8, 18]: 5 (herbicidal effect of not less than 90%, or phytotoxicity of 90% or more); Herbicidal activity OS (phytotoxicity to rice) ([11]; paddy field treatment, transplanted rice Koshihikari, wettable powder, 21st day after the dropping): 0 (herbicidal effect of not less than 0% and less than 10%, or phytotoxicity of 0% or more and less than 10%) |
| CON=C(Cn1cc(C)c(-c2ccccc2)n1)C(=O)N1CCOCC1 [Compound 120] | 4 (herbicidal effect of not less than 70% and less than 90%, or phytotoxicity of 70% or more and less than 90%) | 4 (herbicidal effect of not less than 70% and less than 90%, or phytotoxicity of 70% or more and less than 90%) | 3 (herbicidal effect of not less than 50% and less than 70%, or phytotoxicity of 50% or more and less than 70%) | 4 (herbicidal effect of not less than 70% and less than 90%, or phytotoxicity of 70% or more and less than 90%) | 0 (herbicidal effect of not less than 0% and less than 10%, or phytotoxicity of 0% or more and less than 10%) | 0 (herbicidal effect of not less than 0% and less than 10%, or phytotoxicity of 0% or more and less than 10%) | 5 (herbicidal effect of not less than 90%, or phytotoxicity of 90% or more) | 4 (herbicidal effect of not less than 70% and less than 90%, or phytotoxicity of 70% or more and less than 90%) | 4 (herbicidal effect of not less than 70% and less than 90%, or phytotoxicity of 70% or more and less than 90%) | 4 (herbicidal effect of not less than 70% and less than 90%, or phytotoxicity of 70% or more and less than 90%) | 0 (herbicidal effect of not less than 0% and less than 10%, or phytotoxicity of 0% or more and less than 10%) | 0 (herbicidal effect of not less than 0% and less than 10%, or phytotoxicity of 0% or more and less than 10%) | 4 (herbicidal effect of not less than 70% and less than 90%, or phytotoxicity of 70% or more and less than 90%) | 3 (herbicidal effect of not less than 50% and less than 70%, or phytotoxicity of 50% or more and less than 70%) | 3 (herbicidal effect of not less than 50% and less than 70%, or phytotoxicity of 50% or more and less than 70%) | 4 (herbicidal effect of not less than 70% and less than 90%, or phytotoxicity of 70% or more and less than 90%) | 0 (herbicidal effect of not less than 0% and less than 10%, or phytotoxicity of 0% or more and less than 10%) |  |
| C=CCON=C(Cn1cc(C)c(-c2ccccc2)n1)C(=O)NC [Compound 105] | 4 (herbicidal effect of not less than 70% and less than 90%, or phytotoxicity of 70% or more and less than 90%) | 4 (herbicidal effect of not less than 70% and less than 90%, or phytotoxicity of 70% or more and less than 90%) | 4 (herbicidal effect of not less than 70% and less than 90%, or phytotoxicity of 70% or more and less than 90%) | 4 (herbicidal effect of not less than 70% and less than 90%, or phytotoxicity of 70% or more and less than 90%) | 0 (herbicidal effect of not less than 0% and less than 10%, or phytotoxicity of 0% or more and less than 10%) | 0 (herbicidal effect of not less than 0% and less than 10%, or phytotoxicity of 0% or more and less than 10%) | 5 (herbicidal effect of not less than 90%, or phytotoxicity of 90% or more) | 5 (herbicidal effect of not less than 90%, or phytotoxicity of 90% or more) | 5 (herbicidal effect of not less than 90%, or phytotoxicity of 90% or more) | 5 (herbicidal effect of not less than 90%, or phytotoxicity of 90% or more) | 0 (herbicidal effect of not less than 0% and less than 10%, or phytotoxicity of 0% or more and less than 10%) | 0 (herbicidal effect of not less than 0% and less than 10%, or phytotoxicity of 0% or more and less than 10%) | 5 (herbicidal effect of not less than 90%, or phytotoxicity of 90% or more) | 4 (herbicidal effect of not less than 70% and less than 90%, or phytotoxicity of 70% or more and less than 90%) | 4 (herbicidal effect of not less than 70% and less than 90%, or phytotoxicity of 70% or more and less than 90%) | 5 (herbicidal effect of not less than 90%, or phytotoxicity of 90% or more) | 0 (herbicidal effect of not less than 0% and less than 10%, or phytotoxicity of 0% or more and less than 10%) |  |
| CNC(=O)C(Cn1cc(C)c(-c2ccc(OC(F)F)cc2)n1)=NOC [Compound 65] | 5 (herbicidal effect of not less than 90%, or phytotoxicity of 90% or more) | 5 (herbicidal effect of not less than 90%, or phytotoxicity of 90% or more) | 5 (herbicidal effect of not less than 90%, or phytotoxicity of 90% or more) | 5 (herbicidal effect of not less than 90%, or phytotoxicity of 90% or more) | 0 (herbicidal effect of not less than 0% and less than 10%, or phytotoxicity of 0% or more and less than 10%) | 0 (herbicidal effect of not less than 0% and less than 10%, or phytotoxicity of 0% or more and less than 10%) | 5 (herbicidal effect of not less than 90%, or phytotoxicity of 90% or more) | 5 (herbicidal effect of not less than 90%, or phytotoxicity of 90% or more) | 5 (herbicidal effect of not less than 90%, or phytotoxicity of 90% or more) | 5 (herbicidal effect of not less than 90%, or phytotoxicity of 90% or more) | 0 (herbicidal effect of not less than 0% and less than 10%, or phytotoxicity of 0% or more and less than 10%) | 0 (herbicidal effect of not less than 0% and less than 10%, or phytotoxicity of 0% or more and less than 10%) | 5 (herbicidal effect of not less than 90%, or phytotoxicity of 90% or more) | 5 (herbicidal effect of not less than 90%, or phytotoxicity of 90% or more) | 5 (herbicidal effect of not less than 90%, or phytotoxicity of 90% or more) | 5 (herbicidal effect of not less than 90%, or phytotoxicity of 90% or more) | 0 (herbicidal effect of not less than 0% and less than 10%, or phytotoxicity of 0% or more and less than 10%) |  |
